Data published in the supplement of paper PMC10627819.

What was measured:
S. aureus Newman [1] = experiment: Bliss interaction score (quartile over a dose matrix) (fitness difference); higher = more antagonism (negative = synergy)
Outline: (§1)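 Each OD595 reading at entry into stationary phase was scaled to the robust mean of the untreated wells on its plate, with a ceiling of 1. These ratios define fitness, and single-drug fitness was inferred from combinations. The Bliss score compares observed fitness with the product-based expectation and is reported as quartiles across all replicate types, technical, biological and donor/recipient.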

B. subtilis 168 [2] = experiment: as above
Outline: as §1

S. aureus DSM 20231 = experiment: as above
Outline: as §1

S. pneumoniae D39V [3] = experiment: as above
Outline: as §1

S. aureus Newman [4] = experiment: fitness (endpoint OD595 vs no drug) (fraction); higher = more growth
Outline: (§2)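 Background-subtracted growth curves were the basis for fitness, taken as the optical density at entry into stationary phase over the robust mean of no-drug control wells. A cap of 1 was applied. The curves came from OD595 readings every 30 min for 14 h at 37 °C, in 384-well plates seeded at OD595 0.01 with 30 µl, or 55 µl for S. pneumoniae.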

S. pneumoniae D39V [5] = experiment: as above
Outline: as §2

B. subtilis 168 [6] = experiment: as above
Outline: as §2
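Throughout, for Bliss interaction score (quartile over a dose matrix): first quartile when negative (synergy) and third quartile when positive (antagonism).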

O=C(O)c1cn(C2CC2)c2cc(N3CCNCC3)c(F)cc2c1=O [Ciprofloxacin] + CN[C@H](CC(C)C)C(=O)N[C@H]1C(=O)N[C@@H](CC(N)=O)C(=O)N[C@H]2C(=O)N[C@H]3C(=O)N[C@H](C(=O)N[C@H](C(=O)O)c4cc(O)cc(O)c4-c4cc3ccc4O)[C@H](O)c3ccc(c(Cl)c3)Oc3cc2cc(c3O[C@@H]2O[C@H](CO)[C@@H](O)[C@H](O)[C@H]2O[C@H]2C[C@](C)(N)[C@H](O)[C@H](C)O2)Oc2ccc(cc2Cl)[C@H]1O [Vancomycin]
Conditions | Bliss interaction score
B. subtilis 168 [2] | -0.0465
S. aureus DSM 20231 | 0.0479
S. aureus Newman [1] | -0.0715
S. pneumoniae D39V [3] | -0.106

Conditions | fitness
S. aureus Newman [4], first compound 0.0375 µg/mL, partner 0.1875 µg/mL | 0.75
S. aureus Newman [4], first compound 0.0375 µg/mL, partner 0.375 µg/mL | 0.77
S. aureus Newman [4], first compound 0.0375 µg/mL, partner 0.75 µg/mL | 0.725
S. aureus Newman [4], first compound 0.075 µg/mL, partner 0.1875 µg/mL | 0.718
S. aureus Newman [4], first compound 0.075 µg/mL, partner 0.375 µg/mL | 0.682
S. aureus Newman [4], first compound 0.075 µg/mL, partner 0.75 µg/mL | 0.663
S. aureus Newman [4], first compound 0.15 µg/mL, partner 0.1875 µg/mL | 0.07
S. aureus Newman [4], first compound 0.15 µg/mL, partner 0.375 µg/mL | 0.0567
S. aureus Newman [4], first compound 0.15 µg/mL, partner 0.75 µg/mL | 0.0797
S. pneumoniae D39V [5], first compound 0.125 µg/mL, partner 0.03125 µg/mL | 0.943
S. pneumoniae D39V [5], first compound 0.125 µg/mL, partner 0.0625 µg/mL | 0.881
S. pneumoniae D39V [5], first compound 0.125 µg/mL, partner 0.125 µg/mL | 0.885
S. pneumoniae D39V [5], first compound 0.125 µg/mL, partner 0.25 µg/mL | 0.0814
S. pneumoniae D39V [5], first compound 0.125 µg/mL, partner 0.5 µg/mL | 0.034
S. pneumoniae D39V [5], first compound 0.25 µg/mL, partner 0.03125 µg/mL | 0.845
S. pneumoniae D39V [5], first compound 0.25 µg/mL, partner 0.0625 µg/mL | 0.826
S. pneumoniae D39V [5], first compound 0.25 µg/mL, partner 0.125 µg/mL | 0.82
S. pneumoniae D39V [5], first compound 0.5 µg/mL, partner 0.03125 µg/mL | 0.58
S. pneumoniae D39V [5], first compound 0.5 µg/mL, partner 0.0625 µg/mL | 0.585
S. pneumoniae D39V [5], first compound 0.5 µg/mL, partner 0.25 µg/mL | 0.158
S. pneumoniae D39V [5], first compound 0.5 µg/mL, partner 0.5 µg/mL | 0.0552

S. pneumoniae D39V [5], first compound 0.25 µg/mL, one replicate
Conditions | fitness
partner 0.25 µg/mL | 0.0819
partner 0.5 µg/mL | 0.0016

CO/N=C(\C(=O)N[C@@H]1C(=O)N2C(C(=O)O)=C(COC(N)=O)CS[C@H]12)c1ccco1 [Cefuroxime] + Cc1cc(NS(=O)(=O)c2ccc(N)cc2)no1 [Sulfamethoxazol]
Conditions | Bliss interaction score
B. subtilis 168 [2] | -0.0536
S. aureus DSM 20231 | 0.111
S. aureus Newman [1] | -0.0351
S. pneumoniae D39V [3] | -0.0409

fitness, one replicate
Conditions | partner 0.5 µg/mL | partner 1 µg/mL | partner 2 µg/mL | partner 4 µg/mL
B. subtilis 168 [6], first compound 0.195 µg/mL | 0.405 | – | – | –
B. subtilis 168 [6], first compound 0.39 µg/mL | 0.438 | 0.0396 | 0.29 | –
B. subtilis 168 [6], first compound 0.78 µg/mL | 0.356 | 0.107 | 0.262 | –
B. subtilis 168 [6], first compound 1.562 µg/mL | – | 0.267 | 0.251 | 0.252
B. subtilis 168 [6], first compound 3.125 µg/mL | – | 0.221 | 0.198 | 0.206
B. subtilis 168 [6], first compound 6.25 µg/mL | – | 0.202 | 0.132 | 0.162
S. aureus Newman [4], first compound 0.04875 µg/mL | – | ≥ 1 | 0.953 | 0.986
S. aureus Newman [4], first compound 0.0975 µg/mL | – | 0.954 | 0.966 | 0.935
S. aureus Newman [4], first compound 0.195 µg/mL | – | 0.879 | 0.836 | 0.84

fitness, B. subtilis 168 [6]
Conditions | first compound 0.04875 µg/mL | first compound 0.0975 µg/mL | first compound 0.195 µg/mL
partner 1 µg/mL | 0.708 | 0.67 | 0.404
partner 2 µg/mL | 0.709 | 0.632 | 0.398
partner 4 µg/mL | 0.687 | 0.636 | 0.5

CO/N=C(\C(=O)N[C@@H]1C(=O)N2C(C(=O)O)=C(COC(N)=O)CS[C@H]12)c1ccco1 [Cefuroxime] + CN[C@@H]1[C@H](O)[C@H](NC)[C@H]2O[C@@]3(O)C(=O)C[C@@H](C)O[C@H]3O[C@@H]2[C@H]1O [Spectinomycin]
Conditions | Bliss interaction score
B. subtilis 168 [2] | -0.0976
S. aureus DSM 20231 | 0.116
S. aureus Newman [1] | 0.127
S. pneumoniae D39V [3] | 0.0427

fitness, one replicate
Conditions | first compound 0.04875 µg/mL | first compound 0.0975 µg/mL | first compound 0.195 µg/mL | first compound 1.562 µg/mL | first compound 3.125 µg/mL | first compound 6.25 µg/mL
B. subtilis 168 [6], partner 2 µg/mL | – | – | – | 0.3 | 0.171 | 0.134
B. subtilis 168 [6], partner 4 µg/mL | – | – | – | 0.234 | 0.0263 | 0.0348
B. subtilis 168 [6], partner 8 µg/mL | – | – | – | 0.0211 | 0 | 0.0048
S. aureus Newman [4], partner 4 µg/mL | 0.932 | 0.971 | 0.9 | – | – | –
S. aureus Newman [4], partner 8 µg/mL | 0.943 | 0.96 | 0.877 | – | – | –
S. aureus Newman [4], partner 16 µg/mL | 0.94 | 0.918 | 0.84 | – | – | –

fitness, B. subtilis 168 [6]
Conditions | first compound 0.04875 µg/mL | first compound 0.0975 µg/mL | first compound 0.195 µg/mL
partner 2 µg/mL | 0.717 | 0.667 | 0.55
partner 4 µg/mL | 0.799 | 0.645 | 0.569

CO/N=C(\C(=O)N[C@@H]1C(=O)N2C(C(=O)O)=C(COC(N)=O)CS[C@H]12)c1ccco1 [Cefuroxime] + CN(C)c1cc(NC(=O)CNC(C)(C)C)c(O)c2c1C[C@H]1C[C@H]3[C@H](N(C)C)C(O)=C(C(N)=O)C(=O)[C@@]3(O)C(O)=C1C2=O [Tigecycline]
Conditions | Bliss interaction score
B. subtilis 168 [2] | 0.0459
S. aureus DSM 20231 | 0.0902
S. aureus Newman [1] | -0.0442
S. pneumoniae D39V [3] | 0.0499

fitness, one replicate
Conditions | partner 0.039 µg/mL | partner 0.078 µg/mL | partner 0.125 µg/mL | partner 0.156 µg/mL | partner 0.25 µg/mL | partner 0.5 µg/mL
B. subtilis 168 [6], first compound 0.195 µg/mL | – | – | 0.405 | – | 0.368 | 0.398
B. subtilis 168 [6], first compound 0.39 µg/mL | – | – | 0.34 | – | 0.287 | 0.299
B. subtilis 168 [6], first compound 0.78 µg/mL | – | – | 0.292 | – | 0.211 | 0.259
B. subtilis 168 [6], first compound 1.562 µg/mL | 0.349 | 0.284 | – | 0.283 | – | –
B. subtilis 168 [6], first compound 3.125 µg/mL | 0.258 | 0.219 | – | 0.235 | – | –
B. subtilis 168 [6], first compound 6.25 µg/mL | 0.227 | 0.17 | – | 0.153 | – | –
S. aureus Newman [4], first compound 0.04875 µg/mL | 0.933 | 0.907 | – | 0.95 | – | –
S. aureus Newman [4], first compound 0.0975 µg/mL | 0.927 | 0.959 | – | 0.895 | – | –
S. aureus Newman [4], first compound 0.195 µg/mL | 0.879 | 0.843 | – | 0.863 | – | –

fitness, B. subtilis 168 [6]
Conditions | partner 0.039 µg/mL | partner 0.078 µg/mL | partner 0.156 µg/mL
first compound 0.0975 µg/mL | 0.652 | 0.677 | 0.669
first compound 0.195 µg/mL | 0.553 | 0.53 | 0.537

Cc1ncc([N+](=O)[O-])n1CCO [Metronidazole] + C/C(=C\C(=O)OCCCCCCCCC(=O)O)C[C@@H]1OC[C@H](C[C@@H]2O[C@H]2[C@@H](C)[C@H](C)O)[C@@H](O)[C@H]1O [Pseudomonic acid]
Conditions | Bliss interaction score
B. subtilis 168 [2] | -0.0197
S. aureus DSM 20231 | 0.0111
S. aureus Newman [1] | 0.0128
S. pneumoniae D39V [3] | 0.0684

fitness, S. aureus Newman [4], one replicate
Conditions | first compound 0.625 µg/mL | first compound 1.25 µg/mL | first compound 2.5 µg/mL
partner 0.0313 µg/mL | 0.0517 | 0.0718 | 0.0759
partner 0.0625 µg/mL | 0.0386 | 0.0347 | 0.0304
partner 0.125 µg/mL | 0.0386 | 0.0514 | 0.0492

fitness, S. pneumoniae D39V [5]
Conditions | first compound 1.073 µg/mL | first compound 1.25 µg/mL | first compound 2.145 µg/mL | first compound 2.5 µg/mL | first compound 4.29 µg/mL | first compound 5 µg/mL
partner 0.03 µg/mL | 0.903 | 0.932 | 0.859 | 0.96 | 0.877 | 0.92
partner 0.06 µg/mL | – | 0.816 | – | 0.829 | 0.81 | 0.816
partner 0.12 µg/mL | 0.529 | 0.57 | 0.632 | 0.596 | 0.575 | 0.588
